“Also recorded” adds a separate entry of the source. Residues, ends and D or L forms follow the SMILES beside them. *: point of attachment. Cbz = O=C(OCc1ccccc1)*; CH2F = FC*
Assays:
ASCs [1] = assay: ASC proliferation with Fas-L and inhibitors for 4 days, cell counts; format: cell-based, human
Excerpt: (§1) The dual effect of Fas-L on the apoptosis and proliferation of ASCs, can be mediated solely by canonical Fas-L signaling or through two distinct pathways. To distinguish between these possibilities, ASCs were either left untreated, treated with Fas-L only or treated simultaneously with Fas-L and with the pan-caspase inhibitor […], for 4 days. Importantly, to better evaluate the apoptotic cue of Fas-L, a different Fas-L derivative (mega-Fas-L), which induces high rates of apoptosis in passage 3 ASCs, was used in the current experiments. Sub-G1 proportions and cell numbers were determined by PI cell-cycle flow cytometry analysis and standard cell counts respectively. The experiment was repeated 3 times using cells from 3 independent patients.
Accordingly, cultured Passage 2-4 ASCs were treated with a combination of mega Fas-L, Z-VAD-fmk, LY294002 (PI3K inhibitor), AZD6244 (ERK-1/2 inhibitor) and SP600125 (JNK inhibitor) for 4 days.
After 4 days, cells were removed from plates by trypsin and cells were counted using a standard cell counter. The experiment was repeated 3 times using cells from 3 independent patients.
To test the effects of inhibitors on proliferation of mature ASCs (P2 and P3 ASCs), cells were seeded into 24-well plates (10.000 cells/well) and allowed to attach and grow for 24 h. Then, medium was exchanged for fresh normal growth medium or growth medium supplemented with Fas-L or with Fas-L and one of the inhibitors. Cells were then cultured for 4 days.
At the end of the incubation period, adherent cells were trypsinized, collected and counted with a TC10 Automated Cell Counter (Bio-rad).

ASCs [2] = assay: ASC apoptosis with Fas-L and inhibitors for 4 days, sub-G1 by PI cell-cycle flow cytometry; format: cell-based, human; conditions: Z-VAD-fmk added to mega-Fas-L
Excerpt: as §1
Cells were harvested and fixed with 70% ethanol/PBS, treated with RNaseA 0.4 mg/ml (Sigma) and stained with propidium iodide (PI) 0.1 mg/ml (Sigma).
All labeled cells were analyzed using a FACS Canto II flow cytometer (Becton Dickinson, San Jose, Calif., USA). At least 10.000 events were recorded. Data analysis was performed using the FlowJo software (Tree Star, Ashland, Oreg., USA).

Row | Structure (SMILES) | ASC counts compared to cells treated with Fas-L only (ASCs [1]; P2-4 ASCs, mega Fas-L plus inhibitor, 4 days) | cell quantities (ASCs [1]; P2-4 ASCs, mega Fas-L, Z-VAD-fmk plus inhibitor, 4 days) | Fas-L-dependent proliferation of ASCs (ASCs [1]; inhibitor added to Fas-L) | Fas-L-induced apoptosis of ASCs (sub-G1) (ASCs [2]) | cell yield (ASCs [1]; Fas-L and Z-VAD-fmk together, 4 days, vs untreated) | Fas-L-induced ASC proliferation (ASCs [1]; Z-VAD-fmk added to mega-Fas-L, 4 days) | cell expansion (ASCs [1]; Z-VAD-fmk only, 4 days)
1 | Cn1cnc2c(F)c(Nc3ccc(Br)cc3Cl)c(C(=O)NOCCO)cc21 [AZD6244] | reduced ASC counts | comparable to untreated control | could be inhibited |  |  |  | 
2 | COC(=O)C[C@H](NC(=O)[C@H](C)NC(=O)[C@@H](NC(=O)OCc1ccccc1)C(C)C)C(=O)CF [Z-VAD-fmk] (Cbz-Val-Ala-Asp(OMe)-CH2F) |  |  |  | considerably attenuated; also recorded: near-complete inhibition | doubled cell yield | not affected; also recorded: without impacting; also recorded: minor to negligible effect | No such increased expansion

From US20210137990A1, “METHODS FOR EXP ANDING ADIPOSE-DERIVED STEM CELLS” (CELLECT BIOTHERAPEUTICS LTD., priority 2018, published 2021)
